Measured values: patent US20030055106A1, “Therapeutic uses of peroxometallic compounds” (priority 1999, published 2003)

Tests used:
[1] = system: PC3 prostate cancer cells; experiment: In vitro collagen-fibrin tumor progression model, PC-3; assay type: cell-based, human; conditions: renewed daily, 15 days
Procedure: FIG. 11: Illustration of the antitumor activity of bpV(phen) in vitro using PC3 prostate cancer cells. Collagen gels containing the PC3 cells were prepared according to the method of Esdale and Bard (1972). Briefly, stock collagen solution (3.5 mg/ml in acetic acid 0.02N; Rat tail) was added to a mixture composed of culture medium (5×), fetal bovine serum (FBS), bicarbonate (0.26M), and was neutralized with 0.1N NaOH. A cell suspension (1.42×10^6 cells/ml) was mixed into the collagen-medium mixture to obtain a final concentration of 2.5×10^5 cells/ml.
A DMEM medium, having a normal concentration of glucose and without phenol red, was used. After gelification (within 1 h) of the collagen mixture containing the cells, the gels were removed from their culture wells (mould) and interwoven into a receptor hole prepared in a fibrin gel, as previously described (103). The fibrin gel was made from a 0.3% fibrinogen solution in Hank's balanced salt solution. Fibrin was allowed to polymerize with thrombin (stock solution at 1.75 mg/ml) at a ratio of 1:003 v/v fibrin to thrombin. The collagen-fibrin complexes were then covered with serum-supplemented medium according to the cell types. An inhibitor of plasminogen activator (Trasylol, Parke Davies) was added into the medium at 10 μl/ml (100U/ml).
Cell behavior was periodically monitored over 15 days of culture. […]

[2] = system: Human umbilical vein endothelial cells (HUVECs); conditions: read-out: approximate IC50, endothelial cell proliferation; 96 hours in culture
Procedure: Each experiment was performed in triplicate. The culture medium was changed daily.

murine B10R macrophages = experiment: Chemokine mRNA expression (RNase protection); assay type: cell-based
Procedure: FIG. 9: Effect of bpV(phen) on chemokine mRNA expression in murine B10R macrophages. (A) Cells were incubated for 2 h with or without various concentrations of bpV(phen) (1-50 μM). Total RNA was isolated and analyzed by RNase protection. (B) Kinetic expression of chemokine genes in murine BIOR macrophages. Cells were incubated for increasing period of time (1-4 h) with or without bpV(phen) at 10 μM. Following extraction of total RNA, RNase protection assay was performed. Free RNA probe is shown in the far left lane. The fold increase was calculated from the densitometry of the autoradiogam.
Various concentrations of bpv(phen) were added to B10R macrophages for4 h. mRNA expression was measured by RNase protection assays. RANTES, MIP-1a/β MIP-2, IP-10 and MCP-1 chemokine mRNA levels increased in response to bpv(phen) (FIG. 9A). MCP-1, MIP-2, MIP-1β and RANTES were induced by the addition of bpv(phen) in a dose-dependent manner whereas IP-10 and MIP-1a were expressed at markedly lower concentrations (10 μM).
To determine the kinetics of chemokine expression following pV compound treatment, B10R macrophages were incubated with 10 ?M bpV(phen) for increasing time intervals. Total RNA was extracted from macrophages at various time-points and subjected to RNase protection assay. […] Thus, conditions for the induction of chemokine expression in response to bpV(phen) seems to vary with the different chemokines.

[3] = system: ZR-75 breast cancer cells; experiment: In vitro collagen-fibrin tumor progression model, ZR-75; assay type: cell-based, human
Source text: FIG. 12: Illustration of the antitumor activity of bpV(phen) in vitro using ZR-75 breast cancer cells. Experiments were done as described for the FIG. 11 except that DMEM medium having a high glucose concentration and without phenol red was used. 10% FBS was used instead of 5% FBS. The media was supplemented with 10^−9 M estradiol (final concentration).
The cells embedded in the collagen gel, grew as a “primary tumor”. Some cells migrated from the primary tumor towards the fibrin gel, forming front edges. […] Their extension and numbers are representative of the invasive potential of the cancer cells.

[4] = system: Human prostate adenocarcinoma (PC-3); experiment: Human prostate adenocarcinoma (PC-3) xenograft; assay type: in vivo, Male Balb/c nude (nu/nu) mice; conditions: 5 mg/Kg daily i.p. for 39 days
Procedure: B) Human prostate adenocarcinoma (PC-3) in the athymic mice: Male Balb/c nude (nu/nu) were purchased at 4-6 weeks of age from Charles Rivers Inc. Mice were housed under pathogen free conditions and maintained on a 12-h light/12-h dark cycle with food and water supplied ad libitum. The hormono-independent PC3 human tumor cells were from the American Tissue Cuture Collection. Cells were grown in DMEM in the presence of 5% foetal bovine serum. Cells were collected at confluence, included in a matrix (1.0×10^6 cells/ml; 30% Matrigel). An equal volume of the tumor cell suspension was injected s.c. in the right flank of each mouse. After 5 days, a palpable tumor of approximately 5×5 mm was detected in the inoculated animals. Mice with palpable tumors were divided into five groups (18 mice/group) for the treatment study. All mice in each treatment group had tumor of similar size at the start of treatment. For administration to mice, bpV(phen) was dissolved and diluted in phosphate buffered saline (PBS) at pH 7.4. A 5 mg/Kg dose of bpV(phen) was administed daily by i.p. for 39 days. Taxol was used as a positive control at the dose of 20 mg/Kg and injected i.p. at every three days. A control group of 10 animals was injected with PBS. The injection volume was kept constant at […]. The mice were weighed three times during the experimental period to assess toxicity of the treatment, and the tumors were measured twice weekly using calipers. Tumor volume was calculated from the two-dimensional caliper measurements using the following formula: tumor volume=length×(width)^2×0.53.
The treatment period was completed after 39 days, when the PBS treated group of mice had large tumors, requiring that the animals be sacrificed according to the Animal Care Procedures. […]
Statistical analysis: Tumor growth curves are presented in terms of treatment group means and SEs. Statistical significance of treatment effect was assessed by repeated measures ANOVA after applying a power transformation to equalize residual variances and linearize the tumor growth curves.

## O.O.O.OO.OO.[K+].[OH-].[V].c1cnc2c(c1)ccc1cccnc12 [bpV(phen), potassium bisperoxo(1,10-phenanthroline)oxovanadate]
[1]; 2 μM
  progression of PC-3 cells (secondary tumors, migration front): a decrease in the size of the secondary tumor was observed
[1]; 5 and 10 μM
  progression of PC-3 cells (secondary tumors, migration front): there was no migration front and there were no secondary tumors
[2]
  IC50: ~2000 nM
Murine B10R macrophages
  most effective dose for the induction of chemokine gene expression: 10 µM
Murine B10R macrophages; 10 μM bpV(phen)
  expression of RANTES mRNA: increased in a time-dependent manner over 24 h
  time of maximum levels of MIP-1a, MIP-2, IP-10, and MCP-1 chemokines mRNA: 4 h
  time of optimal expression of MIP-1β mRNA: 8 h
Murine B10R macrophages; various concentrations (1-50 μM)
  RANTES, MIP-1a/β MIP-2, IP-10 and MCP-1 chemokine mRNA levels: increased
[3]; 2 μM
  progression of ZR-75-1 cells (primary and secondary tumors): restricted the growth of the primary tumor
[3]; 5 and 10 μM
  progression of ZR-75-1 cells (primary and secondary tumors): there were no secondary tumors and the primary tumor had a lower cell density
[4]
  deaths: No death
  suppression of the final tumor compared with PBS-treated control animals: 59%
[4]; average
  body weight gained relative to weight at the initiation of the treatment: 1.7 grams
